Article PMC9804781, “Identification of a Novel Pseudo‐Natural Product Type IV IDO1 Inhibitor Chemotype” (Angewandte Chemie (International Ed. in English), 2022)

What was measured:
IDO1 = IDO1 (Homo sapiens, UniProt P14902); experiment: Kyn assay in IDO1-HEK293T cells (CMV promoter); type: cell-based; parameters: host or cells: HEK293T; conditions: absence of IFN-γ; L-Trp, 24 h; p-DMAB
Method: page 80: temperature and centrifuged for 10 min at 1800 x g. Afterwards, an equal volume of freshly prepared 2% (w/v) p-DMAB in glacial acetic acid (Ehrlich reagent) was added prior to measuring the absorbance at 492 nm and 650 nm on the Spark® Multimode Microplate Reader (Tecan, AT). To determine the Kyn levels, the absorbance of the Kyn-p-DMAB adduct […] was subtracted by the background absorbance A650 and normalized to the DMSO control. Data analysis was performed using a non-linear regression curve fit and GraphPad Prism 9.0 (GraphPad Software, Inc, US) to generate dose-response curves and obtain IC50 values. […] Afterwards, an equal volume of freshly prepared 2% (w/v) p-DMAB in glacial acetic acid (Ehrlich reagent) was added prior to measuring the absorbance at 492 nm and 650 nm on the Spark® Multimode Microplate Reader (Tecan, AT). To determine the Kyn levels, the absorbance of the Kyn-p-DMAB adduct […] was subtracted by the background absorbance A650 and normalized to the DMSO control. […] Afterwards, an equal volume of freshly prepared 2% (w/v) p-DMAB in glacial acetic acid (Ehrlich reagent) was added prior to measuring absorbance at 492 nm and 650 nm on the Spark® Multimode Microplate Reader (Tecan, AT). To determine the Kyn levels, the absorbance of the Kyn-p-DMAB adduct […] was subtracted by the background absorbance A650 and normalized to the DMSO control. […]

IDO1 promoter = IDO1 promoter reporter gene assay in HEK293T cells; type: cell-based; conditions: IFN-γ, 48 h
Method: GraphPad Prism 9.0 (GraphPad Software, Inc, US) to generate dose-response curves and obtain […]
IDO1 promoter reporter gene assay
HEK293T cells (25,000 cells/well) were reverse-transfected with pXPG-IDO1[16] (4 µg/96-well plate, kindly provided by Gina M. Doody, Leeds, UK) and pRL-TK (300 ng/96-well plate, Promega, US) using Lipofectamine™ 2000 (Invitrogen, USA) pri or to incubation for 24 h. Afterwards, cells were treated with 50 ng/mL IFN-γ and the compounds for 48 h. Luminescence generated by the Fluc reporter and the control reporter Rluc was measured using the Dual-Glo ® Luciferase Assay System (Promega, US) on the Spark® Multimode Microplate Reader (Tecan, AT). To determine the IDO1 promoter activity, Fluc signals were divided by Rluc signals and normalized to the values of the DMSO control. Data analysis was performed using a non-linear regression curve fit and […]
BxPC-3 cells (30,000 cells/well) were seeded in 96-well plates in Trp-free RPMI 1640 medium and incubated for 48 h prior addition of 50 ng/mL IFN-γ. […]
The supernatant was transferred to a new plate, trichloroacetic acid was added to a final concentration of 7% (v/v) and plates were incubated for 15 min at room temperature. Samples were centrifuged for 10 min at 1800 x g and L-Trp was quantified by HPLC-MS/MS using the LTQ Velos Pro and Dionex HPLC (Thermo Fisher Scientific, US). […]

His-tagged IDO2 = target: T1, His-tagged IDO2 (Homo sapiens, UniProt Q6ZQW0); experiment: IDO2 Activity Assay; type: biochemical; conditions: 50 µM; 90 min + 120 min at 30 °C
T1 construct: His; purchased BPS Bioscience 72035 (kit)
T1 sequence (Q6ZQW0 1-407): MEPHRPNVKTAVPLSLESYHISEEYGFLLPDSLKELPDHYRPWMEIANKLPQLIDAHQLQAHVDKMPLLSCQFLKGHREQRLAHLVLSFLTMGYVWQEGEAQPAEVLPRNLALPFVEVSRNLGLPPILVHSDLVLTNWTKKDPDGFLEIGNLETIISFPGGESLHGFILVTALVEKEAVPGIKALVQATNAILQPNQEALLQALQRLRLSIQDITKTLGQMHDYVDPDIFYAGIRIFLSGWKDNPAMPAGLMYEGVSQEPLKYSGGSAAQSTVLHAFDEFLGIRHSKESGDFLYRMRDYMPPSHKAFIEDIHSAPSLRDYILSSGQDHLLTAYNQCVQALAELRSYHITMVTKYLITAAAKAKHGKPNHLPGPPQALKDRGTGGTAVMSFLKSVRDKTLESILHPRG
Method: Inhibition of indoleamine 2,3-dioxygenase 2 (IDO2) was tested using the Universal IDO1/IDO2/TDO Inhibitor Screening Assay Kit (cat# 72035, BPS Bioscience, US). 10 µg His-tagged IDO2 in IDO2 Assay Buffer was incubated with Complete IDO2 Reaction Solution (1% (v/v) component 2 in component 1) and 50 µM Test Inhibitor (0.5% (v/v) DMSO) for 90 min at 30°C with slow shaking in the dark prior to initiation of the reaction by addition of 20% (v/v) IDO2 Substrate. Samples were incubated for 120 min at 30°C with slow shaking in the dark. Afterwards, absorbance at 321 nm was recorded on the Spark® Multimode Microplate Reader (Tecan, AT), all values were subtracted by the background and normalized to the DMSO control.

IDO1, sequence (P14902 whole entry): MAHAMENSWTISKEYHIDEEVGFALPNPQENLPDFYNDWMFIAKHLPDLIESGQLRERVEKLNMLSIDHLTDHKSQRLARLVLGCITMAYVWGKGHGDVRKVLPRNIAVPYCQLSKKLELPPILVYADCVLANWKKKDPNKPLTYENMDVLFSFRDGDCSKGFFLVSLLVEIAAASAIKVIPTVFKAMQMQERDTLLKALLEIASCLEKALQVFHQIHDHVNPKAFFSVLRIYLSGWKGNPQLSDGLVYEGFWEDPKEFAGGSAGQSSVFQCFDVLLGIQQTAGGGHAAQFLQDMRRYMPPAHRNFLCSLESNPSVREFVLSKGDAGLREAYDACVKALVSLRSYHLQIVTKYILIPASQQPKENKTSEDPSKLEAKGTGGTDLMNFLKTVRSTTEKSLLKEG

Compound: CCOC(=O)C1=CC[C@](C(=O)OC)(c2cc3ccccc3n2C)N(S(=O)(=O)c2ccc(C)cc2)[C@@H]1C(=O)OC(C)(C)C [Compound 3d]
- Kyn production in HEK293T cells transiently expressing IDO1 (IDO1): inhibited Kyn production
- expression of the Fluc reporter under IDO1 promoter (IDO1 promoter): did not reduce the expression of the reporter
- inhibition of IDO2 (result in words) (His-tagged IDO2): did not inhibit
